Test results as given in patent publication US20260284208A1, “SYSTEM” (Oxford University Innovation Limited, priority 2023, published 2026).

Tested on: library of 8,380 IKZF3 degrons (ZF-eGFP/mCherry reporter) in Jurkat cells
Test: Pooled library screen (FACS, NGS, limma voom LogFC of positive vs negative read counts)
Type: cell-based, human
Procedure, shortened: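 Degron enrichment was scored by amplicon NGS of gDNA from GFP-low versus other mCherry+ cells, at >600× coverage across three independent transductions. Sorting followed 18 h exposure at 37 °C to thalidomide analog or DMSO, which set the gate; dead cells were excluded with DAPI. Single-copy integration used MOI <0.3.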

CN1CCN(c2ccc3c(c2)C(=O)N(C2CCC(=O)NC2=O)C3=O)CC1 (stereo not drawn) [B08, 2-(2,6-dioxopiperidin-3-yl)-5-(4-methylpiperazin-1-yl)isoindoline-1,3-dione]
B08_logFC (Degron-ID 3435, SEQ ID NO 2286, 46F_47S_49E_50I_52G_53A_54S_55F_67L): 2.841 | B08_logFC (Degron-ID 3476, SEQ ID NO 2339, 46F_47S_49E_50V_52G_53A_54T_55F_67L): 2.705 | B08_logFC (Degron-ID 3600, SEQ ID NO 2322, 46F_47T_49D_50I_52G_53A_54A_55F_67L): 2.751 | B08_logFC (Degron-ID 3732, SEQ ID NO 2280, 46F_47T_49N_50I_52G_53A_54P_55F_67L): 2.855 | B08_logFC (Degron-ID 3820, SEQ ID NO 2304, 46F_47T_49P_50V_52G_53A_54A_55F_67L): 2.797 | B08_logFC (Degron-ID 3832, SEQ ID NO 2318, 46F_47T_49P_50V_52G_53A_54P_55F_67L): 2.762 | B08_logFC (Degron-ID 3892, SEQ ID NO 2316, 46F_47V_49D_50V_52G_53A_54P_55F_67L): 2.764 | B08_logFC (Degron-ID 3900, SEQ ID NO 2351, 46F_47V_49E_50I_52G_53A_54A_55F_67L): 2.675 | B08_logFC (Degron-ID 3905, SEQ ID NO 2298, 46F_47V_49E_50I_52G_53A_54G_55F_67L): 2.805 | B08_logFC (Degron-ID 3955, SEQ ID NO 2295, 46F_47V_49E_50V_52G_53A_54S_55F_67L): 2.815 | B08_logFC (Degron-ID 4129, SEQ ID NO 2331, 46F_47W_49D_50V_52G_53A_54L_55F_67L): 2.733 | B08_logFC (Degron-ID 4132, SEQ ID NO 2320, 46F_47W_49D_50V_52G_53A_54P_55F_67L): 2.758 | B08_logFC (Degron-ID 4158, SEQ ID NO 2311, 46F_47W_49E_50I_52G_53A_54W_55F_67L): 2.771 | B08_logFC (Degron-ID 4168, SEQ ID NO 2309, 46F_47W_49E_50Q_52G_53A_54K_55F_67L): 2.774 | B08_logFC (Degron-ID 4182, SEQ ID NO 2288, 46F_47W_49E_50V_52G_53A_54D_55F_67L): 2.825 | B08_logFC (Degron-ID 4259, SEQ ID NO 2276, 46F_47W_49N_50V_52G_53A_54Y_55F_67L): 2.879 | B08_logFC (Degron-ID 4262, SEQ ID NO 2312, 46F_47W_49P_50I_52G_53A_54D_55F_67L): 2.769 | B08_logFC (Degron-ID 4269, SEQ ID NO 2299, 46F_47W_49P_50I_52G_53A_54L_55F_67L): 2.805 | B08_logFC (Degron-ID 4294, SEQ ID NO 2296, 46F_47W_49P_50Q_52G_53A_54R_55F_67L): 2.812 | B08_logFC (Degron-ID 4325, SEQ ID NO 2330, 46F_47Y_49D_50I_52G_53A_54G_55F_67L): 2.741 | B08_logFC (Degron-ID 4368, SEQ ID NO 2270, 46F_47Y_49D_50V_52G_53A_54K_55F_67L): 2.897 | B08_logFC (Degron-ID 4374, SEQ ID NO 2335, 46F_47Y_49D_50V_52G_53A_54R_55F_67L): 2.715 | B08_logFC (Degron-ID 4377, SEQ ID NO 2302, 46F_47Y_49D_50V_52G_53A_54V_55F_67L): 2.8 | B08_logFC (Degron-ID 4384, SEQ ID NO 2279, 46F_47Y_49E_50I_52G_53A_54F_55F_67L): 2.859 | B08_logFC (Degron-ID 4400, SEQ ID NO 2269, 46F_47Y_49E_50Q_52G_53A_54A_55F_67L): 2.899 | B08_logFC (Degron-ID 4413, SEQ ID NO 2317, 46F_47Y_49E_50Q_52G_53A_54Q_55F_67L): 2.763 | B08_logFC (Degron-ID 4415, SEQ ID NO 2272, 46F_47Y_49E_50Q_52G_53A_54S_55F_67L): 2.888 | B08_logFC (Degron-ID 4445, SEQ ID NO 2347, 46F_47Y_49N_50I_52G_53A_54G_55F_67L): 2.678 | B08_logFC (Degron-ID 4493, SEQ ID NO 2313, 46F_47Y_49N_50V_52G_53A_54Q_55F_67L): 2.769 | B08_logFC (Degron-ID 4495, SEQ ID NO 2266, 46F_47Y_49N_50V_52G_53A_54S_55F_67L): 2.902 | B08_logFC (Degron-ID 4508, SEQ ID NO 2306, 46F_47Y_49P_50I_52G_53A_54K_55F_67L): 2.789 | B08_logFC (Degron-ID 4509, SEQ ID NO 2274, 46F_47Y_49P_50I_52G_53A_54L_55F_67L): 2.886 | B08_logFC (Degron-ID 4536, SEQ ID NO 2353, 46F_47Y_49P_50Q_52G_53A_54T_55F_67L): 2.667 | B08_logFC (Degron-ID 4543, SEQ ID NO 2292, 46F_47Y_49P_50V_52G_53A_54E_55F_67L): 2.819 | B08_logFC (Degron-ID 4550, SEQ ID NO 2352, 46F_47Y_49P_50V_52G_53A_54M_55F_67L): 2.668 | B08_logFC (Degron-ID 6545, SEQ ID NO 2345, 46L_47F_49P_50I_52G_53F_54G_55C_67L): 2.683 | B08_logFC (Degron-ID 6550, SEQ ID NO 2301, 46L_47F_49P_50I_52G_53F_54M_55C_67L): 2.8 | B08_logFC (Degron-ID 6559, SEQ ID NO 2357, 46L_47F_49P_50I_52G_53F_54Y_55C_67L): 2.661 | B08_logFC (Degron-ID 6755, SEQ ID NO 2278, 46L_47S_49P_50I_52G_53F_54S_55C_67L): 2.86 | B08_logFC (Degron-ID 6775, SEQ ID NO 2332, 46L_47T_49P_50I_52G_53F_54S_55C_67L): 2.73 | B08_logFC (Degron-ID 6795, SEQ ID NO 2300, 46L_47V_49P_50I_52G_53F_54S_55C_67L): 2.801 | B08_logFC (Degron-ID 6824, SEQ ID NO 2285, 46L_47Y_49P_50I_52G_53F_54F_55C_67L): 2.841 | B08_logFC (Degron-ID 6834, SEQ ID NO 2344, 46L_47Y_49P_50I_52G_53F_54R_55C_67L): 2.685 | B08_logFC (Degron-ID 7574, SEQ ID NO 2310, 46F_47W_49E_50I_52G_53R_54R_55F_67L): 2.772 | B08_logFC (Degron-ID 7616, SEQ ID NO 2308, 46L_47A_49E_50I_52G_53F_54T_55C_67L): 2.779 | B08_logFC (Degron-ID 7636, SEQ ID NO 2363, 46L_47C_49E_50I_52G_53F_54T_55C_67L): 2.644 | B08_logFC (Degron-ID 7736, SEQ ID NO 2325, 46L_47H_49E_50I_52G_53F_54T_55C_67L): 2.749 | B08_logFC (Degron-ID 7915, SEQ ID NO 2362, 46L_47T_49E_50I_52G_53F_54S_55C_67L): 2.649 | B08_logFC (Degron-ID 7964, SEQ ID NO 2360, 46L_47Y_49E_50I_52G_53F_54F_55C_67L): 2.653 | B08_logFC (Degron-ID 7971, SEQ ID NO 2297, 46L_47Y_49E_50I_52G_53F_54N_55C_67L): 2.807 | position of the WT sequence in the volcano plot of the library screen (WT ZF sequence): far away from the ‘hits’ region
